The target in data set [1] is T1, Tyrosine-protein kinase BTK (Homo sapiens, UniProt Q06187). As to the kind of experiment: Inhibition of recombinant full-length His6-tagged BTK (unknown origin) expressed in baculovirus infected Sf9 cells using biotinylated A5 peptide as substrate preincubated for 60 mins followed by substrate addition measured after 120 mins by LANCE TR-FRET assay.
Data set [2] addresses T1, Tyrosine-protein kinase BTK. Description: Inhibition of BTK in human PBMC assessed as reduction in anti-IgM-induced MIP1beta.
Data set [3] addresses Voltage-gated inwardly rectifying potassium channel KCNH2 (Homo sapiens, UniProt Q12809). Description: Inhibition of human ERG by [35S]-MK499 displacement or iKr channel assay.
Data set [4] addresses Tyrosine-protein kinase Blk (Homo sapiens, UniProt P51451). Description: Inhibition of BLK (unknown origin).
For data set [5], the species on record is Homo sapiens. As to the kind of experiment: Selectivity ratio of IC50 for BLK (unknown origin) to IC50 for BTK (unknown origin).
Data set [6] addresses T2, Cytoplasmic tyrosine-protein kinase BMX (Homo sapiens, UniProt P51813).
T2 sequence (P51813 whole entry): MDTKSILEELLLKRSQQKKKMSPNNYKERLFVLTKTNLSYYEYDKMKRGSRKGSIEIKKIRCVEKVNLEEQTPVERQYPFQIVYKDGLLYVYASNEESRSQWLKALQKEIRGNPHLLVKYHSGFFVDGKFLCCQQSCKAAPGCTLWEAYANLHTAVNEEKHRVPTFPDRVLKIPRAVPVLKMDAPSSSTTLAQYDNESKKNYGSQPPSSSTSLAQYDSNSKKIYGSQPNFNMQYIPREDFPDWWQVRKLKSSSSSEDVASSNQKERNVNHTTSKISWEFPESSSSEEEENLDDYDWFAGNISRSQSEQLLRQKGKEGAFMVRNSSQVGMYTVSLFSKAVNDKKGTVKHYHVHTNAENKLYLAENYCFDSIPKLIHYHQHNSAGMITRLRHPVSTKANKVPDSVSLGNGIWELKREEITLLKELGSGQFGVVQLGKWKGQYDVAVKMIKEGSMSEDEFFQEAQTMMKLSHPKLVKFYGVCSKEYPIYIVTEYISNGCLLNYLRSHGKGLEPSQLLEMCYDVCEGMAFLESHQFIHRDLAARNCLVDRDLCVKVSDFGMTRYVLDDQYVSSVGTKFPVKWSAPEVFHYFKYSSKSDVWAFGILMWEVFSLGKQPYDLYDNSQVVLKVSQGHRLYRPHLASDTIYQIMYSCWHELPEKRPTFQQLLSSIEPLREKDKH
As to the kind of experiment: Inhibition of BMX (unknown origin).

The species named for data set [7] is Homo sapiens. As to the kind of experiment: Selectivity ratio of IC50 for BMX (unknown origin) to IC50 for BTK (unknown origin).
Data set [8] addresses Tyrosine-protein kinase CSK (Homo sapiens, UniProt P41240). As to the kind of experiment: Inhibition of CSK (unknown origin).
The species entered for data set [9] is Homo sapiens. Description: Selectivity ratio of IC50 for CSK (unknown origin) to IC50 for BTK (unknown origin).
In data set [10] the target is Receptor tyrosine-protein kinase erbB-4 (Homo sapiens, UniProt Q15303). Description: Inhibition of ERBB4 (unknown origin).
For data set [11], the species on record is Homo sapiens. Description: Selectivity ratio of IC50 for ERBB4 (unknown origin) to IC50 for BTK (unknown origin).
Data set [12] concerns the target Tyrosine-protein kinase Fgr (Homo sapiens, UniProt P09769). Description: Inhibition of FGR (unknown origin).
For data set [13], the species on record is Homo sapiens. Description: Selectivity ratio of IC50 for FGR (unknown origin) to IC50 for BTK (unknown origin).
The target in data set [14] is Tyrosine-protein kinase FRK (Homo sapiens, UniProt P42685). Description: Inhibition of FRK (unknown origin).
The species named for data set [15] is Homo sapiens. As to the kind of experiment: Selectivity ratio of IC50 for FRK (unknown origin) to IC50 for BTK (unknown origin).
The target in data set [16] is Tyrosine-protein kinase Fyn (Homo sapiens, UniProt P06241). As to the kind of experiment: Inhibition of FYN (unknown origin).
Tyrosine-protein kinase Fyn, sequence (P06241 whole entry): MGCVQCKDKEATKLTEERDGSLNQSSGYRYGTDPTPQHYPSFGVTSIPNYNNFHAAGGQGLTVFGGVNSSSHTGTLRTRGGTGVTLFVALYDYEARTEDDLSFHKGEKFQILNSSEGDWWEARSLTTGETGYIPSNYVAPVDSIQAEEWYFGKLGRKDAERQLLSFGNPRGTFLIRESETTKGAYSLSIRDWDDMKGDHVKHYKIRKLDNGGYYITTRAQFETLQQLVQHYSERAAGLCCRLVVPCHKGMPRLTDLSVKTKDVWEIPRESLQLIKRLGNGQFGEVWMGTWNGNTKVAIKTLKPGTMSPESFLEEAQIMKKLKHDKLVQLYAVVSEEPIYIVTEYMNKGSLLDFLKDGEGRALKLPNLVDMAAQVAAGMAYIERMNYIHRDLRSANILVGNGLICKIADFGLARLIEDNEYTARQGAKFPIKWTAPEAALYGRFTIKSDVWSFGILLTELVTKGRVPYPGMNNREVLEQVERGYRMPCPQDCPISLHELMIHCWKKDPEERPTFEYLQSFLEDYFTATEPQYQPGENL
Data set [17] is filed under the species Homo sapiens. Description: Selectivity ratio of IC50 for FYN (unknown origin) to IC50 for BTK (unknown origin).
For data set [18], the target named is Tyrosine-protein kinase Lck (Homo sapiens, UniProt P06239). As to the kind of experiment: Inhibition of LCK (unknown origin).
Tyrosine-protein kinase Lck, sequence (P06239 whole entry): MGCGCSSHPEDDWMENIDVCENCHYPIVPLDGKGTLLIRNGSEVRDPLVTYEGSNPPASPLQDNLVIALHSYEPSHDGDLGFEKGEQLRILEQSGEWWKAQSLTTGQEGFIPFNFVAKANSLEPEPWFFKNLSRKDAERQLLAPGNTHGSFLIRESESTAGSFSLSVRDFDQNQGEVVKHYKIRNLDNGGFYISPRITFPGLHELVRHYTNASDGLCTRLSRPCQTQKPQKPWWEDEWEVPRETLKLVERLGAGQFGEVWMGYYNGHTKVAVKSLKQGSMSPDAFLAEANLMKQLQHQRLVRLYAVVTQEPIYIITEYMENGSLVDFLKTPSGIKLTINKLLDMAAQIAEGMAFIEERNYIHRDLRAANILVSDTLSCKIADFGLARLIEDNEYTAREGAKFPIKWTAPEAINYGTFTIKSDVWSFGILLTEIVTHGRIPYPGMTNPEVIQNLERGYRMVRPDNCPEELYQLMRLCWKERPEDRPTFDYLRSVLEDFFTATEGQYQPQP
For data set [19], the species on record is Homo sapiens. Description: Selectivity ratio of IC50 for LCK (unknown origin) to IC50 for BTK (unknown origin).
The target in data set [20] is Tyrosine-protein kinase Lyn (Homo sapiens, UniProt P07948). Description: Inhibition of LYNB (unknown origin).
The species entered for data set [21] is Homo sapiens. Description: Selectivity ratio of IC50 for LYNB (unknown origin) to IC50 for BTK (unknown origin).
Data set [22] concerns the target Protein-tyrosine kinase 6 (Homo sapiens, UniProt Q13882). As to the kind of experiment: Inhibition of PTK6 (unknown origin).
Data set [23] is filed under the species Homo sapiens. As to the kind of experiment: Selectivity ratio of IC50 for PTK6 (unknown origin) to IC50 for BTK (unknown origin).
Data set [24] deals with Proto-oncogene tyrosine-protein kinase Src (Homo sapiens, UniProt P12931). Description: Inhibition of SRC (unknown origin).
The species named for data set [25] is Homo sapiens. Description: Selectivity ratio of IC50 for SRC (unknown origin) to IC50 for BTK (unknown origin).
Data set [26] concerns the target Tyrosine-protein kinase Srms (Homo sapiens, UniProt Q9H3Y6). Description: Inhibition of SRMS (unknown origin).
The species named for data set [27] is Homo sapiens. As to the kind of experiment: Selectivity ratio of IC50 for SRMS (unknown origin) to IC50 for BTK (unknown origin).
Data set [28] concerns the target T3, Tyrosine-protein kinase Tec (Homo sapiens, UniProt P42680).
T3 sequence (P42680 whole entry): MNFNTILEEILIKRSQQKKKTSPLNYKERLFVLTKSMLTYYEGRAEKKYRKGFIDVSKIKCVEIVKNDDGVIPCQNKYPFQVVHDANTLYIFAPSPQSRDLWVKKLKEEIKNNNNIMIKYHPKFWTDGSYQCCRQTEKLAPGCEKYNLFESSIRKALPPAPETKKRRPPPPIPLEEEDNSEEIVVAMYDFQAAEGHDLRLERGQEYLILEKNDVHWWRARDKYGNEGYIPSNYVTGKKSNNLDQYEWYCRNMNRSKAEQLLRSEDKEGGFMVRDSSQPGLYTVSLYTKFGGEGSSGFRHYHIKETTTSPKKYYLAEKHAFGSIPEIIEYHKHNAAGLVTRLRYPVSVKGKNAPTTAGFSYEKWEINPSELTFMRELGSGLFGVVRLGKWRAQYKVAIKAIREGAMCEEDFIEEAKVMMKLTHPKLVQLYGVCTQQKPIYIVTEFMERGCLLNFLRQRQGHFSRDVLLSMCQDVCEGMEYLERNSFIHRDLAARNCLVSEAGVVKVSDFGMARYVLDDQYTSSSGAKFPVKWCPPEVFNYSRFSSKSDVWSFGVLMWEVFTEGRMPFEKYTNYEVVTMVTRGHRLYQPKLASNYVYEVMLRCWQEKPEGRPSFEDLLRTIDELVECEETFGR
As to the kind of experiment: Inhibition of TEC (unknown origin).

For data set [29], the species on record is Homo sapiens. Description: Selectivity ratio of IC50 for TEC (unknown origin) to IC50 for BTK (unknown origin).
Data set [30] deals with T4, Tyrosine-protein kinase TXK (Homo sapiens, UniProt P42681).
T4 sequence (P42681 whole entry): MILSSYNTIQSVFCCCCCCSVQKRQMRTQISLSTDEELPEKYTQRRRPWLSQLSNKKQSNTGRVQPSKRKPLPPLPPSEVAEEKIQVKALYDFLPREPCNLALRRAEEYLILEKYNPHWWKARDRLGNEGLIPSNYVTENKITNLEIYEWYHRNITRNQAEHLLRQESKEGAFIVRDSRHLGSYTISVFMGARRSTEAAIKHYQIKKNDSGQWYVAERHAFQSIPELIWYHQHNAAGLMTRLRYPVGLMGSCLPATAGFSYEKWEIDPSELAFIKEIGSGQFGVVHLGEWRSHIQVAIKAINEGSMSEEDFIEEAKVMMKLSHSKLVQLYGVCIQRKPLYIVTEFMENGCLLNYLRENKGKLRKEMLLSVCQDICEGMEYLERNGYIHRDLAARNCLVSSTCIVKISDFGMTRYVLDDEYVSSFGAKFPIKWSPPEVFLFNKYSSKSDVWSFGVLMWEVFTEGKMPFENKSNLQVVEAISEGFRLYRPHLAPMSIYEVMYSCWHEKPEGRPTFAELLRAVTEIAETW
As to the kind of experiment: Inhibition of TXK (unknown origin).

The species entered for data set [31] is Homo sapiens. Description: Selectivity ratio of IC50 for TXK (unknown origin) to IC50 for BTK (unknown origin).
In data set [32] the target is Tyrosine-protein kinase Yes (Homo sapiens, UniProt P07947). As to the kind of experiment: Inhibition of YES1 (unknown origin).
Tyrosine-protein kinase Yes, sequence (P07947 whole entry): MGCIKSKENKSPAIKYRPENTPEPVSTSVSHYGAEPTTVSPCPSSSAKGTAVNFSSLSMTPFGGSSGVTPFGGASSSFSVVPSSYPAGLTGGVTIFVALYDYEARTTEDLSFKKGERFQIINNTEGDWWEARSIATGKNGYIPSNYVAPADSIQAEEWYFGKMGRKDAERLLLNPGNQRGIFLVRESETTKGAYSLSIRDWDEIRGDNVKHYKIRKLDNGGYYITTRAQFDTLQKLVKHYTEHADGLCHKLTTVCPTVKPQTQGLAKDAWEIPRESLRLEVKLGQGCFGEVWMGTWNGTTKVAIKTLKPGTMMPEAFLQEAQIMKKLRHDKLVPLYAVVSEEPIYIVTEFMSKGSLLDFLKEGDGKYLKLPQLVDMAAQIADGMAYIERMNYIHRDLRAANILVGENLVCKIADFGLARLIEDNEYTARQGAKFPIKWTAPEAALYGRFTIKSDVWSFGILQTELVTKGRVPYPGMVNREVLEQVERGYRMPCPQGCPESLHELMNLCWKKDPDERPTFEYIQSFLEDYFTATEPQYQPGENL
The species entered for data set [33] is Homo sapiens. Description: Selectivity ratio of IC50 for YES1 (unknown origin) to IC50 for BTK (unknown origin).
Data set [34] is described as follows: Total clearance in rat plasma at 10 mg/kg. The data set is classed as ADME, organism-based.
Data set [35] can be described thus: Half life in rat at 10 mg/kg. The data set is classed as ADME, organism-based. The following applies: in vivo.
Data set [36] can be described thus: Oral bioavailability in rat at 10 mg/kg. It counts as ADME, organism-based. The following applies: in vivo.
The nature of data set [37]: Total clearance in dog plasma at 2 mg/kg. The data set is classed as ADME, organism-based, Canis lupus familiaris.
Data set [38] in a line: Half life in dog at 2 mg/kg. It counts as ADME, organism-based, Canis lupus familiaris. Particulars: in vivo.
The nature of data set [39]: Oral bioavailability in dog at 2 mg/kg. It counts as ADME, organism-based, Canis lupus familiaris. Particulars: in vivo.

T1 sequence (Q06187 whole entry): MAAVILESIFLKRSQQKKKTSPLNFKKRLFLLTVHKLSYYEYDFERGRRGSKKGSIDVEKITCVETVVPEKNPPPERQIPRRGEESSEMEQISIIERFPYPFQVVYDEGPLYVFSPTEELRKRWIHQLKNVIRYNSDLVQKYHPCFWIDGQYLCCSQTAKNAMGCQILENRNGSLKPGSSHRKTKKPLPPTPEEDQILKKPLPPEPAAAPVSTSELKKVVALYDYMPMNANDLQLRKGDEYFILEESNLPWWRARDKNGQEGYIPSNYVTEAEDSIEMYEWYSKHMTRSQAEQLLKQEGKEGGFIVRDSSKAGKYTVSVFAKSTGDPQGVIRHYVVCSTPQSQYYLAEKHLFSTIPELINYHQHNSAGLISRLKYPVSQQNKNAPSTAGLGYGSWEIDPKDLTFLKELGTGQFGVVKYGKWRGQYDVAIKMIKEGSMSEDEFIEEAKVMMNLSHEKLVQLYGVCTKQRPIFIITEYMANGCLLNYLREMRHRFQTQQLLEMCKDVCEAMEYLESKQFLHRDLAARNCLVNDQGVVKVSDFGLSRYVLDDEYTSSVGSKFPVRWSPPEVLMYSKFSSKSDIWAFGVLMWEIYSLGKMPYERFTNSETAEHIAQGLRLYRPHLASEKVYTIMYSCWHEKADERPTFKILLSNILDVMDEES
Voltage-gated inwardly rectifying potassium channel KCNH2, sequence (Q12809 whole entry): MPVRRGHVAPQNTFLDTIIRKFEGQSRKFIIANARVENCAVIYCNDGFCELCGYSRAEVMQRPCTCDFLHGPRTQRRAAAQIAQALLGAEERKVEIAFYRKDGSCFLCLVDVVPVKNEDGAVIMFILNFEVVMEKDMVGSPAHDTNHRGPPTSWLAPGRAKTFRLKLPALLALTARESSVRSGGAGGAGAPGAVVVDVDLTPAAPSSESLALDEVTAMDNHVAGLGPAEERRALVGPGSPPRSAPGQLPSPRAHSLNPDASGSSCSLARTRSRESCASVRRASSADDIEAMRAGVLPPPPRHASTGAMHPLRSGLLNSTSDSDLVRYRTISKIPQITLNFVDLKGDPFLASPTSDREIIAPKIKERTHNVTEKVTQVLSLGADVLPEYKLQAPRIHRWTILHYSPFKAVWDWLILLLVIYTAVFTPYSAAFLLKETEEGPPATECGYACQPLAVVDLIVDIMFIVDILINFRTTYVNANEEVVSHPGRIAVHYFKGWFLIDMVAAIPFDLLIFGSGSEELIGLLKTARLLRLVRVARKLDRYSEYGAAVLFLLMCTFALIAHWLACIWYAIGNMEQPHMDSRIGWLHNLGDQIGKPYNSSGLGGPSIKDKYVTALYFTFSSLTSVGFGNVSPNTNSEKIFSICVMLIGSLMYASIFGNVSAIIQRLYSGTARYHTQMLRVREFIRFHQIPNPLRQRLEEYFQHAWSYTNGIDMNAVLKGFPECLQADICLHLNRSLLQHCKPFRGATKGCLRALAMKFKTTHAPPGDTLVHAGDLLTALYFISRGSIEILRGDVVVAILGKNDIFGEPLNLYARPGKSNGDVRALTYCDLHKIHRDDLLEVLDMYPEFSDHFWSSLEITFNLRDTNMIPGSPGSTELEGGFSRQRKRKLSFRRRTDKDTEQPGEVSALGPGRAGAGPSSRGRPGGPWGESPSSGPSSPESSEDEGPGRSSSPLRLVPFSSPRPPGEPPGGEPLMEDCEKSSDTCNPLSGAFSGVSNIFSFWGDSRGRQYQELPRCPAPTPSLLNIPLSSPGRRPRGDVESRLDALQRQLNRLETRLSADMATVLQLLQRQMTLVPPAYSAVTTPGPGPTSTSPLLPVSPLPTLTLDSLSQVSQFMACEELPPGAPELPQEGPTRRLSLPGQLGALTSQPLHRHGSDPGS
Tyrosine-protein kinase Fgr, sequence (P09769 whole entry): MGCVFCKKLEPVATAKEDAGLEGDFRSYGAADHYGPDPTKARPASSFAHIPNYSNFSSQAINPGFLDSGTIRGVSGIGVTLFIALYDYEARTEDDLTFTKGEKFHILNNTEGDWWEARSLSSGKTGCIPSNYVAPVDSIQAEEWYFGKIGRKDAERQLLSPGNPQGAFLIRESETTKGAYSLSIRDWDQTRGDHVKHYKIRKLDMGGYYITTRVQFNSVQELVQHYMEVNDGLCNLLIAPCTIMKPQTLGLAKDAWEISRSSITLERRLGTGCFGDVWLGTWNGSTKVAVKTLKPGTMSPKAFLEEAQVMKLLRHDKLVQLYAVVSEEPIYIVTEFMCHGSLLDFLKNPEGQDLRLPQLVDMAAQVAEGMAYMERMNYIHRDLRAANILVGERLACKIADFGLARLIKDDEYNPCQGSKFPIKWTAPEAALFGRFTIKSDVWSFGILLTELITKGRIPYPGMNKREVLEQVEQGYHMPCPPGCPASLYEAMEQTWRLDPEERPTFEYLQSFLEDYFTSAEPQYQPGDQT
Tyrosine-protein kinase CSK, sequence (P41240 whole entry): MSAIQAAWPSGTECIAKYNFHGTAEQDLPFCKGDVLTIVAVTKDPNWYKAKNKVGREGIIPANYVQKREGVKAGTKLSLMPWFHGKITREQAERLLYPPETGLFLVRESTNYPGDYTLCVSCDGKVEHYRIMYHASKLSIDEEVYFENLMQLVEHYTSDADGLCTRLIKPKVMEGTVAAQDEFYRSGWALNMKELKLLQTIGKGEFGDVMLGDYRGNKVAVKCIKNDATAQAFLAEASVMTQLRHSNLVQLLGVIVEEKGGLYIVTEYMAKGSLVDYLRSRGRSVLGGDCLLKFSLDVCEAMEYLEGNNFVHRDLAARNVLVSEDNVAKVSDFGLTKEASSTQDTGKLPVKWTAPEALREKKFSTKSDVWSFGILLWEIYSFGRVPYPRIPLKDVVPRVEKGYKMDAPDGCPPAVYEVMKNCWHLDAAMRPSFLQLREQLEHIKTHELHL
Tyrosine-protein kinase Blk, sequence (P51451 whole entry): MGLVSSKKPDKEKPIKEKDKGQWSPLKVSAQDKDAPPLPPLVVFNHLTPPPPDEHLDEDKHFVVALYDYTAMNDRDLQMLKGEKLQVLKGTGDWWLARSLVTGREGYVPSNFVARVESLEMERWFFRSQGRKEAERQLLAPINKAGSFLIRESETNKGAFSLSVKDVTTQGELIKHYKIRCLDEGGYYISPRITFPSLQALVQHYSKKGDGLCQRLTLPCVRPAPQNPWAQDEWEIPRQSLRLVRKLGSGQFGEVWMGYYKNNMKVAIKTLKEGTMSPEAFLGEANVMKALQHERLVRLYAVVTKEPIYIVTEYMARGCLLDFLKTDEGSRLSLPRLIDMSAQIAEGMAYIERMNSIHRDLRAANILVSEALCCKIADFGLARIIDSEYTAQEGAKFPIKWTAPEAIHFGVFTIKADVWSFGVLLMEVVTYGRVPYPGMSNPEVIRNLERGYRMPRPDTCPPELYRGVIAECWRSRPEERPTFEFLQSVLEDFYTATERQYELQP

For `COCC(=O)N1CCC[C@@H](c2nc(-c3ccc(C(=O)Nc4cc(C(F)(F)F)ccn4)cc3F)c3c(N)nccn23)C1`, the IC50 in [1] is 0.0002 to 0.00022 µM; in [2], 0.013 µM; in data set [3], 4.5 µM; in [4], 0.009 µM; in data set [6], 0.02 µM; in data set [8], 0.261 µM. The 50% inhibitory concentration (IC50) in data set [10] turned out to be 0.071 µM; in data set [12] it was 0.028 µM; in data set [14] it was 0.151 µM; in [16], 0.188 µM; in data set [18], 0.011 µM; in data set [20] it was 0.074 µM. In addition, the half-maximal inhibitory concentration (IC50) in data set [22] was found to be 0.06 µM; in [24] it was 0.055 µM; in data set [26] it was 0.019 µM; in [28], 0.063 µM; in [30], 0.045 µM; in data set [32], 0.037 µM. Besides, the Ratio IC50 in the data set filed under Homo sapiens [5] was determined as 39; in the data set filed under Homo sapiens [7], 93; in the data set listed under Homo sapiens [9], 1180; in the data set filed under Homo sapiens [11] it was 322; in the data set listed under Homo sapiens [13], 127; in the data set filed under Homo sapiens [15], 687. For the same compound, the Ratio IC50 in the data set listed under Homo sapiens [17] is 853; in the data set listed under Homo sapiens [19], 51; in the data set filed under Homo sapiens [21], 335; in the data set listed under Homo sapiens [23], 273; in the data set filed under Homo sapiens [25], 251; in the data set listed under Homo sapiens [27], 86. Also, the Ratio IC50 in the data set listed under Homo sapiens [29] was 287; in the data set filed under Homo sapiens [31], 203; in the data set filed under Homo sapiens [33] it was 167.

Regarding `CC1(C(=O)N2CCO[C@@H](c3nc(-c4ccc(C(=O)Nc5cc(C(F)(F)F)ccn5)cc4F)c4c(N)nccn34)C2)CCC1`, in data set [3], the concentration for half-maximal inhibition (IC50) stood at 14 µM.

As to `C[C@H]1CO[C@@H](c2nc(-c3ccc(C(=O)Nc4cc(C(F)(F)F)ccn4)cc3F)c3c(N)nccn23)CN1C(=O)C1CC1`, the clearance in [34] is 4.2 mL/min/kg; in data set [37], 1.6 mL/min/kg. The half-life was 3.9 h in [35] and 8.8 h in [38]. For the same compound, the bioavailability in data set [36] worked out at 40%; in data set [39], 88%.

In turn, `CC(=O)N1CCC[C@@H](c2nc(-c3ccc(C(=O)Nc4cc(C(F)(F)F)ccn4)cc3F)c3c(N)nccn23)C1` registered an IC50 in [3] of 2.4 µM.

For the compound `CC(C)C(=O)N1CCC[C@@H](c2nc(-c3ccc(C(=O)Nc4cc(C(F)(F)F)ccn4)cc3F)c3c(N)nccn23)C1`, the half-maximal inhibitory concentration (IC50) was 0.00025 to 0.0003 µM in data set [1]; 0.005 µM in [2]; 0.053 µM in [4]; 0.083 µM in data set [6]; 1.15 µM in [8]; 0.23 µM in data set [10]. Moreover, the half-inhibitory concentration (IC50) in data set [12] was 0.203 µM; in data set [14], 0.472 µM; in data set [16], 0.894 µM; in data set [18] it was 0.074 µM; in data set [20], 0.646 µM; in [22], 0.35 µM. Further, the IC50 in data set [24] amounted to 0.265 µM; in data set [26], 0.084 µM; in data set [28] it was 0.378 µM; in data set [30] it was 0.132 µM; in data set [32], 0.189 µM.

Usually IC50 stands for the point on the concentration scale where inhibition reaches its midpoint. For orientation: clearance means the volume of plasma or blood freed of the substance per unit of time. A lower clearance goes with a low capacity for elimination. What is called half-life is how long it takes for the measured level to halve. Higher therefore signals slow decline. As usually defined, the bioavailability is dose-corrected exposure relative to a reference, in per cent. Read a high bioavailability as much systemic uptake.

The values are drawn from ChEMBL document CHEMBL4052776, “Discovery of 3-morpholino-imidazole[1,5-a]pyrazine BTK inhibitors for rheumatoid arthritis” (Bioorg Med Chem Lett, 2017).
